Laboratory results published in US20110160279A1, “METHODS FOR TREATMENT AND PREVENTION OF OTOTOXICITY BY siRNA” (BOARD OF TRUSTEES OF SOUTHERN ILLINOIS UNIVERSITY, priority 2007, published 2011).
Like-named read-outs stand apart in the source and are kept apart here.

Legend:
p53 = p53 protein expression in UB/OC-1 cells; type: cell-based, mouse; details: pretreatment (capsazepine 10 μM; BAPTA-AM 30 min) before cisplatin
Experimental: (§1) The increases in these proteins were attenuated by capsazepine (10 μM), implicating TRPV1 in this process.

UB-OC1 cells [1] = assay: Apoptosis by TUNEL staining in UB-OC1 cells; type: cell-based, mouse; details: for apoptotic cells (TUNEL), of total cells: pretreated 30 min with TRPV1 inhibitor, then cisplatin 20 μM 24 h
Experimental: (§2) Immortalized organ of Corti cells derived from the mouse, UB/OC-1 cells, were obtained from Dr. Matthew Holley (Institute of Molecular Physiology, Addison Building, Western Bank, Sheffield, UK) and cultured in RPMI 1640 supplemented with 10% Fetalclone II (Hyclone, Logan, Utah) serum and penicillin-streptomycin. Cultures were grown in a 33° C. incubator in 10% CO2.
Frag-EL DNA fragmentation kit and H2DCFDA dye was purchased from (Calbiochem, San Diego, Calif.). TRPV1 antibody (Neuromics, Edina, Minn.) and secondary goat anti rabbit antibody was purchased from Santa Cruz Biotechnology (Santa Cruz, Calif.).
as §1

Bax = Bax protein expression in UB/OC-1 cells; type: cell-based, mouse; details: pretreatment (capsazepine 10 μM; BAPTA-AM 30 min) before cisplatin
Experimental: as §1

UB/OC-1 = assay: Gentamicin-induced ROS generation by DCF2DA in UB/OC-1 cells; type: cell-based, mouse; details: capsazepine 10 μM or ruthenium red 20 μM for 15 min, then gentamicin (20 μM) 30 min
Experimental: FIG. 5 depicts that inhibition of TRPV1 reduces generation of reactive oxygen species (ROS) by aminoglycosides. UB/OC-1 cultures were pretreated with vehicle (control), capsazepine (10 μM) or ruthenium red (20 μM) for 15 min prior to the administration of vehicle (control) or gentamicin (20 μM) for 30 min and the generation of reactive oxygen species was determined by the fluorescence of 2′,7′-dichlorodihydrofluorescein diacetate (DCF2DA) using confocal microscopy.
In this study, the mouse organ of Corti cell line (UB/OC-1) was used to examine the properties of aminoglycoside-induced ROS generation. For these experiments, cells were grown on coverslips to 60-80% confluency, then pretreated with vehicle (control and gentamicin groups), capsazepine (10 μM) or ruthenium red (20 μM) for 15 min. This was followed by vehicle (control) or gentamicin for 30 min. Cells were then loaded with 2′,7′-dichlorodihydrofluorescein diacetate (DCF2DA) and imaged by confocal microscopy.

TRPV1 mRNA = assay: Real time RT-PCR of TRPV1 mRNA in rat cochlea; type: in vivo
Experimental: (§3) Animal procedures and sample collection: Male Wistar rats were used for this study. Pre-ABR's were performed 2-3 days before round window application of siTRPV1 or PBS. […] The cochleas were dissected and used for the preparation of total RNA or total protein extracts, or perfused with 2.5% glutaraldehyde for morphological studies by Scanning Electron Microscopy (SEM's) or 4% paraformaldehyde for immunocytochemistry.
(§4) RNA was isolated by adding 1 ml TR1 reagent to 100 mg of cochlear or cortical tissue or 0.5 ml TR1 reagent (Sigma, St. Louis, Mo.) per well of each six well plate, according to the manufacturer's instructions.
(§5) Real time reverse transcriptase polymerase chain reaction (RT-PCR): One microgram of total RNA was converted to cDNA using iScript cDNA Synthesis Kit (Bio-Rad, Hercules, Calif.), and qRTPCR was performed as described by (Mukherjea et al, 2006). Gene specific primer pairs were used for the various reactions and mRNA expression levels were normalized to the levels of GAPDH house keeping gene.
(§6) The rodent set of primers and siRNA were based on the homologous sequences in the rat and mouse cDNA sequences. The primers were purchased from Sigma Genosys (St. Louis, Mo.). Purified siRNA duplexes were purchased from Qiagen (Valencia, Calif.).

NOX3 mRNA [2] = assay: Real time RT-PCR of NOX3 mRNA in rat cochlea; type: in vivo
Experimental: as §3, §4, §5, §6

UB-OC1 cells [3] = assay: Cisplatin-induced ROS generation by DCF2DA fluorescence in UB-OC1 cells; type: cell-based, mouse; details: pretreated with AEBSF 100 μM
UB-OC1 cells [4] = assay: Cell viability and morphology of UB-OC1 cultures; type: cell-based, mouse
TRPV1 = type: cell-based, mouse; details: pretreatment with 100 μM AEBSF or 10 μM DPI before cisplatin 2.5 μM
Experimental: as §2
To further study the role of ROS generated via cochlear NADPH oxidases in the induction of TRPV1 in the cochlea, in vitro experiments were performed using the organ of Corti transformed hair cell line, UB/OC1 (Rivolta et al., Proc. R. Sco. Lond., 265, 1595-1603, 1998). […] Immunolabeling was quantitated by fluorescence imaging using a confocal microscope. […] The immunofluorescence in these groups was reduced by 60 and 70%, respectively (FIG. 2B). […] The increases in expression of these genes were inhibited by DPI (10 μM), indicative of a role or NADPH oxidase activity in the induction of these subunits (FIG. 2G).

Rac1 = assay: Real time RT-PCR of Rac1 mRNA in UB/OC-1 cells; type: cell-based, mouse; details: DPI 10 μM
Experimental: as §2, §4, §5, §6

NOX3 mRNA [5] = assay: Real time RT-PCR of NOX3 mRNA in UB/OC-1 cells; type: cell-based, mouse; details: DPI 10 μM
Experimental: as §2, §4, §5, §6

NADPH oxidase = details: 10 μM, cochlear extracts, Lucigenin probe
Experimental: In order to determine whether noise exposure increased the activity of NADPH oxidase in the chinchilla cochlea, a major source of reactive oxygen species (ROS), the activity of NADPH oxidase in cytosolic preparations from the cochlea was examined. The activity of NAD(P)H oxidase was determined using 50 μg protein from cochlear extracts incubated with 100 μM β-NAD(P)H in a total volume of 200 μl of Hank's HEPES buffer (pH 7.4). The assay was initiated by the addition of 50 μM N,N′-dimethyl-9,9′-biacridinium dinitrate (Lucigenin) (Sigma, St. Louis, Mo.) to the incubation mixture. Samples were counted immediately using a table top luminometer (Berthold Detection Systems FB Luminometer, Zylux Corp., Maryville, Tenn.) with sampling time every 6 sec. Samples were counted over a period of 5 min and the fluorescence recorded over 2 min of stable readings were averaged for that samples. Samples were run in duplicate and the NAD(P)H oxidase activity was normalized to the protein concentrations in each sample.

gp91 = assay: Real time RT-PCR of gp91 mRNA in UB/OC-1 cells; type: cell-based, mouse; details: DPI 10 μM
Experimental: as §2, §4, §5, §6

SMILES | effect on cisplatin-induced increase in p53 (p53) | effect on cell apoptosis compared to vehicle-treated control (UB-OC1 cells [1]) | apoptotic cells (TUNEL), of total cells (UB-OC1 cells [1]) [%] | effect on cisplatin-induced increase in Bax (Bax) | effect on ROS generation of the gentamicin group (UB/OC-1) | reduction of TRPV1 immunofluorescence (TRPV1) [%] | further results
Oc1cc2c(cc1O)CN(C(=S)NCCc1ccc(Cl)cc1)CCC2 [capsazepine] | attenuated | Neither capsazepine nor ruthenium red alone had any significant effect | ~7 | attenuated | suppressed |  | 
O=C(O)CCCC[C@@H]1CCSS1 (racemic) [lipoic acid] |  |  |  |  |  |  | effect on basal expression of TRPV1 (TRPV1 mRNA; rat cochlea, lipoic acid alone, not statistically significant): tendency to reduce basal expression of TRPV1; effect on cisplatin-induced TRPV1 expression in vivo (TRPV1 mRNA; rats pretreated with lipoic acid before cisplatin, 72 hrs): completely abolished; effect on basal expression of NOX3 (NOX3 mRNA [2]; lipoic acid alone): significantly reduced; effect on the increase in NOX3 by cisplatin (NOX3 mRNA [2]; lipoic acid pretreatment, cisplatin 72 hrs): attenuated
NCCc1ccc(S(=O)(=O)F)cc1 [AEBSF] |  |  |  |  |  | 60 | effect on cisplatin-induced increase in ROS generation (UB-OC1 cells [3]): abolished; effect on cell viability over a 24 h period (UB-OC1 cells [4]; 100 μM AEBSF or 10 μM DPI): did not significantly affect cell viability
c1ccc2c(c1)[I+]c1ccccc1-2 [DPI, diphenyleneiodonium] |  |  |  |  |  | 70 | effect on cell viability over a 24 h period (UB-OC1 cells [4]): did not significantly affect cell viability; effect on cisplatin-induced increase in Rac1 expression (Rac1): inhibited; effect on cisplatin-induced increase in NOX3 expression (NOX3 mRNA [5]): inhibited; effect on NADPH oxidase activity (NADPH oxidase): blockade of enzyme activity; effect on cisplatin-induced increase in gp91 expression (gp91): inhibited
CC(=O)OCOC(=O)CN(CC(=O)OCOC(C)=O)c1ccccc1OCCOc1ccccc1N(CC(=O)OCOC(C)=O)CC(=O)OCOC(C)=O [BAPTA-AM] | down-regulated the expression of these pro-apoptotic genes to control levels |  |  | substantial reduction |  |  | 
N.N.N.N.N.N.N.N.N.N.N.N.N.N.[Cl-].[Cl-].[Cl-].[Cl-].[Cl-].[Cl-].[O-2].[O-2].[Ru+3].[Ru+3].[Ru+4] [ruthenium red] |  | Neither capsazepine nor ruthenium red alone had any significant effect | ~7 |  | suppressed |  | 
